Source: a compilation of properties of binary mixtures (doi:10.1016/j.molliq.2021.118139)

Assay: xn = mol fraction of the nth substance listed
Settings: 100 kPa

CC[N+](CC)(CC)CC.[Cl-] + OCCOCCOCCO
Settings | electrical conductivity, 293.15 K [S/m] | electrical conductivity, 303.15 K [S/m] | electrical conductivity, 313.15 K [S/m] | electrical conductivity, 323.15 K [S/m] | electrical conductivity, 333.15 K [S/m] | viscosity, 293.15 K [mPa·s] | viscosity, 303.15 K [mPa·s] | viscosity, 313.15 K [mPa·s] | viscosity, 323.15 K [mPa·s] | viscosity, 333.15 K [mPa·s]
x1 = 0.1667 | 0.16 | 0.226 | 0.313 | 0.424 | 0.564 | 80 | 55.9 | 40 | 29.2 | 21.7
x1 = 0.25 | 0.194 | 0.276 | 0.384 | 0.524 | 0.702 | 117 | 77 | 52.1 | 36.1 | 25.6

CCCC[N+](CCCC)(CCCC)CCCC.[Cl-] + Oc1ccccc1
Settings | electrical conductivity, 293.15 K [S/m] | electrical conductivity, 303.15 K [S/m] | electrical conductivity, 313.15 K [S/m] | electrical conductivity, 323.15 K [S/m] | electrical conductivity, 333.15 K [S/m] | viscosity, 293.15 K [mPa·s] | viscosity, 303.15 K [mPa·s] | viscosity, 313.15 K [mPa·s] | viscosity, 333.15 K [mPa·s]
x1 = 0.1667 | 0.0802 | 0.117 | 0.167 | 0.232 | 0.317 | – | – | – | –
x1 = 0.167 | – | – | – | – | – | 91.3 | 66.4 | 49.2 | 28.6
